Test system: PFI-019, SEQ ID NO: 2
Assay: FLIPR functional cell-based assay for agonist activation (Fluo3 fluorescence), transiently transfected 293 cells expressing mouse Gα15
Set-up: species or system human
Settings: PFI-019-transfected 293 cells (HEK 293 expressing mouse Gα15); fluorescence intensity versus time; concentration not given; Figures 3-6
Protocol: Fluorescence Imaging Plate Reader (FLIPR®) technology was employed as a means to detect activation of PFI-019 by agonists in a cell-based assay.
5 x 10^6 Human Embryonic Kidney (HEK) 293 cells expressing the mouse Gα15 gene (from here on called '293 cells'), were transiently transfected with 7.5 µg of PFI-019 (contained within the pcDNA4HIS-max-TOPO (Invitrogen) plasmid) vector, or vector alone, using Lipofectamine Plus® reagent (Gibco BRL) as per the manufacturer's protocol. The plasmid pcDNA4HIS-max-TOPO was used as it contains elements that up-regulate the level of gene transcription over standard pcDNA3.1 vectors. 24 hrs post-transfection, the cells were detached from the flask using Trypsin/EDTA solution (LTI) and seeded into a black sided, Poly-D-lysine-treated, 96-well plate (Becton Dickinson) at 5 x 10^4 cells/well density. The plates were left overnight to allow the cells to adhere to the bottom of the wells. The medium was removed from the cells and replaced with 100 µl warm (37°C) dye loading solution (50 µg Fluo3 (Molecular Probes) in 20 µl DMSO + 20% pluronic acid in DMSO, added to 11 ml Dulbecco's Modified Eagles Medium containing 1x Probenecid (100x Probenecid - 0.71 g Probenecid was dissolved in 5 ml 1M NaOH and 5 ml Dulbeccos' Phosphate Buffered Saline (PBS), per plate; Probenecid (Molecular Probes) inhibits activity of the anion transport protein, thus improving dye loading). The plates were then incubated for 1 hr at 37°C. Plates were subsequently washed with 250 µl of wash buffer per well (5 ml 100x Probenecid stock + 495 ml PBS, pH 7.4) 4 times. The plates were returned to the 37°C/5%CO2 incubator for 30 mins prior to processing within the FLIPR® instrument. The FLIPR® processing involved reading the fluorescence for all samples for 2 minutes; during this time the fluorescence baseline was determined for the first 10 seconds. The desired amount of compound was then automatically transferred to the wells, and the fluorescence was continuously monitored for the remainder of the time. All compounds were diluted in wash buffer
Using methodology as described in detail above, purinoceptor agonist compounds were identified as being able to functionally activate PFI-019.
Figures 3, 4, 5 and 6 show the response of PFI-019-transfected 293 cells to 2-chloroadenosine triphosphate tetrasodium (2-chloro-ATP; Fig. 3), 2-Methylthioadenosine triphosphate tetrasodium (2-methyl-thio-ATP; Fig. 4;); 2-Methylthioadenosine diphosphate trisodium (2-methyl-thio-ADP, Fig. 5) and Uridine triphosphate (Fig. 6). […] All compounds were purchased from Sigma.

| Structure (SMILES) | stimulation of PFI-019 |
| --- | --- |
| O=c1ccn([C@@H]2O[C@H](COP(=O)(O)OP(=O)(O)OP(=O)(O)O)[C@@H](O)[C@H]2O)c(=O)[nH]1 [UTP, Uridine triphosphate] | stimulation |
| CSc1nc(N)c2ncn([C@@H]3O[C@H](COP(=O)(O)OP(=O)(O)O)[C@@H](O)[C@H]3O)c2n1 [2-methyl-thio-ADP, 2-Methylthioadenosine diphosphate trisodium] | stimulation |
| CSc1nc(N)c2ncn([C@@H]3O[C@H](COP(=O)(O)OP(=O)(O)OP(=O)(O)O)[C@@H](O)[C@H]3O)c2n1 [2-methyl-thio-ATP, 2-Methylthioadenosine triphosphate tetrasodium] | stimulation |
| Nc1nc(Cl)nc2c1ncn2[C@@H]1O[C@H](COP(=O)([O-])OP(=O)([O-])OP(=O)([O-])[O-])[C@@H](O)[C@H]1O.[Na+].[Na+].[Na+].[Na+] [2-chloro-ATP, 2-chloroadenosine triphosphate tetrasodium] | stimulation |

From patent publication EP1219638A2, “G-protein coupled receptors having homology to the P2Y purinoreceptor 1 (P2Y1)” (Pfizer Limited, priority 2000, dated 2002)
